System: HCV replicon in the 5-15 subline of Huh-7 cells
Experiment: Replicon ELISA (HCV replicon assay)
Assay type: cell-based, hepatitis C virus (HCV 1b)
Details: Hepatitis C virus; Huh-7 5-15 cells, HCV 1b replicon, 72 hours, NS4a ELISA
Source text: The 5-15 subline of Huh-7 cells (Lohmann, V., Korner, F., Koch, J-O., Herian, U., Theilmann, L. & Bartenschlager, R., 1999, Science, 2, pp 110-113) were used for these assays. These are human hepatocellular carcinoma cells stably transfected with an HCV replicon comprising the majority of the HCV 1b genome with the addition of a selectable marker gene, but lacking the genes encoding for all structural proteins and non-structural protein (NS) 2. The replicon RNA is self-replicating and fully functional viral proteins are translated from it. A quantifiable and specific reduction of expressed protein in the presence of a drug can be used as a measure of replicon inhibition.
Stock solutions of compound samples were formulated to 40 mM in DMSO. […]
ELISA step: Growth medium was removed from the plate and the cell monolayers were washed gently once with phosphate buffered saline (PBS) prior to fixing with a 1:1 mix of acetone:methanol for 5 minutes. […] The reaction was stopped by the addition of 25 μl per well of 2M sulphuric acid and the plates were read spectrophotometrically at 490 nm. […]
The absorbance values from all compound-free wells that had received both primary and secondary antibodies were averaged to obtain a positive control value. The mean absorbance value from the compound-free wells that had not received the primary antibody was used to provide the negative (background) control value. […]

SMILES | IC50
COC(=O)[C@H](C)NP(=O)(OC[C@@H]1C[C@@H](O)[C@H](n2ccc(N)nc2=O)O1)Oc1ccccc1 (some centres unmarked) [Example 2] | < 200 µM
C[C@H](NP(=O)(OC[C@@H]1C[C@@H](O)[C@H](n2ccc(N)nc2=O)O1)Oc1ccccc1)C(=O)OCc1ccccc1 (some centres unmarked) [Example 3] | < 200 µM

— patent US20050009775A1 (priority 2001, published 2005)
